Data as given in patent US10159256B2, “Organic pruning wound composition” (The Regents of the University of California, priority 2014, dated 2018).

Key:
Assay in all cases: Micro- and macronutrients tested against trunk disease fungi
Conditions in all cases: among all micro- and macronutrients tested
[1] = test system: Pa. chlamydospora
Excerpt: (§1) However, these products are not registered as organic products, leaving organic growers with no alternatives for controlling trunk diseases.

[2] = test system: Pm. Alephilum
Excerpt: as §1

[3] = test system: P. viticola
Excerpt: as §1

[4] = test system: E. lata
Excerpt: as §1

[5] = test system: D. seriata
Excerpt: as §1

[B] [boron (B), boron]
most effective: effectiveness against Pa. chlamydospora [1] | effectiveness against Pm. Alephilum [2] | effectiveness against P. viticola [3] | effectiveness against E. lata [4] | effectiveness against D. seriata [5]

[Zn] [zinc (Zn), zinc]
most effective: effectiveness against Pa. chlamydospora [1] | effectiveness against Pm. Alephilum [2] | effectiveness against P. viticola [3] | effectiveness against E. lata [4] | effectiveness against D. seriata [5]
